Experimental data from patent publication US9695200B2, “Heterocyclic ITK inhibitors for treating inflammation and cancer” (Confluence Life Sciences, Inc., priority 2015, dated 2017).
pIC50: −log10 of the molar value. Like-named read-outs stand apart in the source and are kept apart here.

Key:
[1] = test system: phospho-PLCγ1 in Jurkat cells; assay: ITK target modulation PLC-γ assay (phospho-PLCγ1, αCD3-stimulated Jurkat cells); assay type: cell-based, human; settings: 1 hour compound incubation, αCD3 Dynabeads stimulation 8 minutes, MSD phospho-PLCγ1, read-out: PLC-γ Inhibition IC50
Protocol: Jurkat cells, an immortalized human T-lymphocyte cell line, were maintained in RPMI media, 10% FBS, 1% pen/strep/glutamine (growth media). Cells were plated in growth media plus 50 μM β-mercaptoethanol at 400,000 cells per well of a 96 well plate.
Compounds were serially diluted into DMSO, and then into media to concentrations 10× that of the final assay concentration. Compounds were then added to the cells with the final assay DMSO concentration being 0.1%. Cells were incubated for 1 hour at 37° C.
Following compound incubation, αCD3 Dynabeads were added at 1 bead/cell to each assay well and incubated at 37° C. for 7 minutes. Unstimulated control wells received media only. The plate was then placed on a 96-well magnetic plate for an additional 60 seconds (total assay stimulation time equals 8 minutes). The plate was then dumped and gently patted dry on a paper towel. 50 μl of complete Meso Scale Discovery (MSD) Lysis buffer was then added to each well. Samples were assayed for phospho-PLCγ1 using Meso Scale Discovery technology.
The assay stimulation time has been optimized for detection of Itk kinase-mediated phosphorylation of PLCγ1. The timing and detection reagents for this assay could be adjusted to capture phosphorylation events upstream (e.g., phospho-ZAP70) or downstream of the Itk/PLCγ1 node, provided the appropriate phospho-specific antibodies are available for building of an MSD assay.

[2] = molecular target: ITK (Homo sapiens (Human), UniProt Q08881); assay: ITK inhibitor binding potency (LanthaScreen competitive binding assay); settings: TR-FRET tracer-236 displacement, 10 nM ITK; pre-incubation condition not given; read-out: ITK Inhibition IC50
ITK, sequence (Q08881 whole entry): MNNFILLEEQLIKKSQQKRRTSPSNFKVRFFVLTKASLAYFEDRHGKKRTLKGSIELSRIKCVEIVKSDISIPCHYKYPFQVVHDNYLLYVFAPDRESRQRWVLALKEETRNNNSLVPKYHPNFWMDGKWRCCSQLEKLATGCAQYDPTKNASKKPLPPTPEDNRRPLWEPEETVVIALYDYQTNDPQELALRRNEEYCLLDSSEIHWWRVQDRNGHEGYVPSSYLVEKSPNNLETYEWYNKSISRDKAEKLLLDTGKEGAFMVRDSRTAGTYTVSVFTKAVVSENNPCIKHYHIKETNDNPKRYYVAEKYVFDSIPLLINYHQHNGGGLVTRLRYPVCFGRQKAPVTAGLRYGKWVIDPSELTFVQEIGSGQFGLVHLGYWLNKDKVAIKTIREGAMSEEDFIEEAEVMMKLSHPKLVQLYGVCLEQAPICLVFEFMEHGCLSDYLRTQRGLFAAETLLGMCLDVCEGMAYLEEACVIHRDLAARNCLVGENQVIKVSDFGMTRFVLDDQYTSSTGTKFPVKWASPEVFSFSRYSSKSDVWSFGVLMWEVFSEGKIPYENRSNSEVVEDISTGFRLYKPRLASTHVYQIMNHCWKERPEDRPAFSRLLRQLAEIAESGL
Text: The ability of candidate compounds to interact with ITK is quantitated by a competitive binding assay using the LanthaScreen technology developed by Life Technologies. This assay is based on the binding of a proprietary, Alexa Fluor® 647-labeled, ATP-competitive kinase inhibitor (kinase tracer-236) to the ITK expression construct in the presence of a Europium-conjugated antibody, resulting in a FRET (fluorescence resonance energy transfer) signal. Displacement of the kinase tracer by compound results in a lower emission ratio upon excitation of the Europium chelate. Candidate compounds are designed as potential irreversible inhibitors of ITK, capable of ligating to an active site cysteine residue resulting in time dependent covalent binding. The time dependent nature of irreversible inhibition is investigated by performing the binding assay with and without a pre-incubation of compound and ITK. […] The inhibitory potency of candidate compounds is measured in 20 mM HEPES pH 7.5, 10 mM MgCl2, 0.01% BSA, 0.0005% Tween-20, and 2% DMSO in the presence of 10 nM ITK, 2 nM Eu-anti-GST antibody, and 50 nM kinase tracer-236 using a 384-well plate format. Background signal is defined in the absence of ITK and uninhibited signal is defined in the presence of vehicle (2% DMSO) alone. Compounds were evaluated in an 11 point dose-response ranging from 20 uM to 0.34 nM. The binding assays are performed under two preincubation conditions to evaluate time dependence of inhibition. For the pre-incubation assay, ITK and Eu-anti-GST antibody are pre-incubated with compound or vehicle for two hours prior to the addition of kinase tracer. The non-preincubated assay is run under conditions where ITK and Eu-anti-GST antibody are added to a mixture of compound and kinase tracer. IC50 values of compounds are determined using a 4 parameter logistical fit of emission ratio as a function of the concentration of compound.

Compound | pIC50 ([1]; Homo sapiens) | pIC50 [2] | pIC50 [1]
O=C(/C=C/CN1CCOCC1)Nc1cccc(-c2cnc3[nH]cc(-c4ccncc4)c3c2)c1 [Example 23, (E)-4-morpholino-N-(3-(3-(pyridin-4-yl)-1H-pyrrolo[2,3-b]pyridin-5-yl)phenyl)but-2-enamide] | 5.30 to 6.00 | ≥ 6.00 | –
CN(C)C/C=C/C(=O)Nc1cccc(-c2cnc3[nH]cc(-c4ccncc4)c3c2)c1 [Example 24, (E)-4-(dimethylamino)-N-(3-(3-(pyridin-4-yl)-1H-pyrrolo[2,3-b]pyridin-5-yl)phenyl)but-2-enamide] | > 6.00 | ≥ 6.00 | –
C=CC(=O)Nc1cncc(-c2cnc3[nH]cc(-c4ccnc(C)c4)c3c2)c1 [Example 28, N-(5-(3-(2-methylpyridin-4-yl)-1H-pyrrolo[2,3-b]pyridin-5-yl)pyridin-3-yl)acrylamide] | > 6.00 | ≥ 6.00 | –
CN(C)C/C=C/C(=O)Nc1cccc(-c2cnc3[nH]cc(-c4ccc(=O)n(C)c4)c3c2)c1 [Example 34, (E)-4-(dimethylamino)-N-(3-(3-(1-methyl-6-oxo-1,6-dihydropyridin-3-yl)-1H-pyrrolo[2,3-b]pyridin-5-yl)phenyl)but-2-enamide] | < 5.30 | < 6.00 | –
C=CC(=O)NC1CN(c2cnc3[nH]cc(-c4ccnc(F)c4)c3c2)C1 [Example 35, N-(1-(3-(2-fluoropyridin-4-yl)-1H-pyrrolo[2,3-b]pyridin-5-yl)azetidin-3-yl)acrylamide] | < 5.30 | ≥ 6.00 | –
C=CC(=O)NC1CN(c2cnc3[nH]cc(-c4ccnc(NC)c4)c3c2)C1 [Example 36, N-(1-(3-(2-(methylamino)pyridin-4-yl)-1H-pyrrolo[2,3-b]pyridin-5-yl)azetidin-3-yl)acrylamide] | < 5.30 | ≥ 6.00 | –
COc1cc(-c2c[nH]c3ncc(-c4cccc(NC(=O)/C=C/CN(C)C)c4)cc23)ccn1 [Example 37, (E)-4-(dimethylamino)-N-(3-(3-(2-methoxypyridin-4-yl)-1H-pyrrolo[2,3-b]pyridin-5-yl)phenyl)but-2-enamide] | 5.30 to 6.00 | ≥ 6.00 | –
COc1cc(-c2c[nH]c3ncc(-c4cccc(NC(=O)/C=C/CN5CCOCC5)c4)cc23)ccn1 [Example 38, (E)-N-(3-(3-(2-methoxypyridin-4-yl)-1H-pyrrolo[2,3-b]pyridin-5-yl)phenyl)-4-morpholinobut-2-enamide] | < 5.30 | ≥ 6.00 | –
C=CC(=O)Nc1cccc(-c2cnc3[nH]cc(-c4cc(OC)ncn4)c3c2)c1 [Example 39, N-(3-(3-(6-methoxypyrimi-din-4-yl)-1H-pyrrolo[2,3-b]pyridin-5-yl)phenyl)acryl-amide] | 5.30 to 6.00 | ≥ 6.00 | –
C=CC(=O)Nc1cc(-c2cnc3[nH]cc(-c4ccnc(OC)c4)c3c2)cc(N2CCOCC2)n1 [Example 41, N-(4-(3-(2-methoxypyridin-4-yl)-1H-pyrrolo[2,3-b]pyridin-5-yl)-6-morpholinopyri-din-2-yl)acrylamide] | > 6.00 | ≥ 6.00 | –
C=CC(=O)Nc1cc(-c2cnc3[nH]cc(-c4ccnc(OC)c4)c3c2)cc(OC(C)C)n1 [Example 45, N-(6-isopropoxy-4-(3-(2-methoxypyridin-4-yl)-1H-pyrrolo[2,3-b]pyridin-5-yl)pyridin-2-yl)acrylamide] | 5.30 to 6.00 | ≥ 6.00 | –
C=CC(=O)Nc1cccc(-c2cnc3[nH]cc(-c4ccc(C(=O)Nc5ccc(C)cc5C)cc4)c3c2)c1 [Example 67, 4-(5-(3-acrylamidophen-yl)-1H-pyrrolo[2,3-b]pyridin-3-yl)-N-(2,4-dimethylphenyl) benzamide] | > 6.00 | < 6.00 | –
C=CC(=O)Nc1cccc(-c2cnc3[nH]cc(-c4c[nH]c(=O)c5ccccc45)c3c2)c1 [Example 69, N-(3-(3-(1-oxo-1,2-dihydroisoquino-lin-4-yl)-1H-pyrrolo[2,3-b]pyridin-5-yl)phenyl)acryl-amide] | < 5.30 | ≥ 6.00 | –
C=CC(=O)Nc1cccc(-c2cnc3[nH]cc(-c4cn(C)c(=O)c5ccccc45)c3c2)c1 [Example 72, N-(3-(3-(2-methyl-1-oxo-1,2-dihydroisoquino-lin-4-yl)-1H-pyrrolo[2,3-b]pyridin-5-yl)phenyl)acryl-amide] | > 6.00 | ≥ 6.00 | –
C=CC(=O)Nc1cccc(-c2cnc3[nH]cc(-c4ccc(C(=O)Nc5ccc(C(C)C)cc5)cc4)c3c2)c1 [Example 74, 4-(5-(3-acrylamidophen-yl)-1H-pyrrolo[2,3-b]pyridin-3-yl)-N-(4-isopropylphenyl) benzamide] | > 6.00 | ≥ 6.00 | –
N-(6-methoxy- 4-(3-(2- methoxypyridin- 4-yl)-1H- pyrrolo[2,3- b]pyridin-5- yl)pyridin-2- yl)methacryl- amide [Example 68] | – | < 6.00 | < 5.30

Other lines, results leading:

pIC50 ([1]; Homo sapiens) | pIC50 [2] | pIC50 [1] | Compound
> 6.00 | ≥ 6.00 | – | COc1cc(NC(=O)/C=C/CN(C)C)cc(-c2cnc3[nH]cc(-c4ccnc(OC)c4)c3c2)c1 [Example 76, (E)-4-(dimethylamino)-N-(3-methoxy-5-(3-(2-methoxypyridin-4-yl)-1H-pyrrolo[2,3-b]pyridin-5-yl)phenyl)but-2-enamide]
< 5.30 | ≥ 6.00 | – | CN(C)C/C=C/C(=O)Nc1cccc(-c2cnc3[nH]cc(-c4cccc(C#N)c4)c3c2)c1 [Example 78, (E)-N-(3-(3-(3-cyanophenyl)-1H-pyrrolo[2,3-b]pyridin-5-yl)phenyl)-4-(dimethylamino) but-2-enamide]
< 5.30 | < 6.00 | – | C=C(C)C(=O)Nc1cccc(-c2cnc3[nH]cc(-c4ccnc(OC)c4)c3c2)c1 [Example 81, N-(3-(3-(2-methoxypyridin-4-yl)-1H-pyrrolo[2,3-b]pyridin-5-yl)phenyl)meth-acrylamide]
5.30 to 6.00 | ≥ 6.00 | – | CN(C)C/C=C/C(=O)Nc1cccc(-c2cnc3[nH]cc(-c4cccnc4)c3c2)c1 [Example 84, (E)-4-(dimethylamino)-N-(3-(3-(pyridin-3-yl)-1H-pyrrolo[2,3-b]pyridin-5-yl)phenyl)but-2-enamide]
< 5.30 | ≥ 6.00 | – | C=C(C)C(=O)Nc1cccc(-c2cnc3[nH]cc(-c4cccnc4)c3c2)c1 [Example 85, N-(3-(3-(pyridin-3-yl)-1H-pyrrolo[2,3-b]pyridin-5-yl)phenyl)meth-acrylamide]
< 5.30 | < 6.00 | – | C=CC(=O)Nc1cccc(-c2cnc3[nH]cc(-c4cn(CC5CC5)c(=O)c5ccccc45)c3c2)c1 [Example 86, N-(3-(3-(2-(cyclopropyl-methyl)-1-oxo-1,2-dihydroisoquino-lin-4-yl)-1H-pyrrolo[2,3-b]pyridin-5-yl)phenyl)acryl-amide]
< 5.30 | ≥ 6.00 | – | COc1cc(-c2c[nH]c3ncc(-c4cccc(NC(=O)/C(C#N)=C/C(C)C)c4)cc23)ccn1 [Example 87, (E)-2-cyano-N-(3-(3-(2-methoxypyridin-4-yl)-1H-pyrrolo[2,3-b]pyridin-5-yl)phenyl)-4-methylpent-2-enamide]
> 6.00 | ≥ 6.00 | – | CN(C)C/C=C/C(=O)Nc1cccc(-c2cnc3[nH]cc(-c4ccnc5[nH]ccc45)c3c2)c1 [Example 89, (E)-N-(3-(1H,1′H-[3,4′-bipyrrolo[2,3-b]pyridin]-5-yl)phenyl)-4-(dimethylamino) but-2-enamide]
< 5.30 | ≥ 6.00 | – | CN(C)C/C=C/C(=O)Nc1cccc(-c2cnc3[nH]cc(-c4ccc(=O)n(CC5CC5)c4)c3c2)c1 [Example 90, (E)-N-(3-(3-(1-(cyclopropyl-methyl)-6-oxo-1,6-dihydropyridin-3-yl)-1H-pyrrolo[2,3-b]pyridin-5-yl)phenyl)-4-(dimethylamino) but-2-enamide]
